IC50 data for 16 compounds are collected here from ChEMBL document CHEMBL2375291, “Discovery of a series of novel 5H-pyrrolo[2,3-b]pyrazine-2-phenyl ethers, as potent JAK3 kinase inhibitors” (Bioorg Med Chem Lett, 2013).

The term IC50 denotes the concentration at which inhibition is half-maximal. Read a low IC50 as greater potency.

Assay [1] addresses Tyrosine-protein kinase JAK1 (Homo sapiens, UniProt P23458).
For assay [2], the target named is T1, Tyrosine-protein kinase JAK3 (Homo sapiens, UniProt P52333).
T1 sequence (P52333 whole entry): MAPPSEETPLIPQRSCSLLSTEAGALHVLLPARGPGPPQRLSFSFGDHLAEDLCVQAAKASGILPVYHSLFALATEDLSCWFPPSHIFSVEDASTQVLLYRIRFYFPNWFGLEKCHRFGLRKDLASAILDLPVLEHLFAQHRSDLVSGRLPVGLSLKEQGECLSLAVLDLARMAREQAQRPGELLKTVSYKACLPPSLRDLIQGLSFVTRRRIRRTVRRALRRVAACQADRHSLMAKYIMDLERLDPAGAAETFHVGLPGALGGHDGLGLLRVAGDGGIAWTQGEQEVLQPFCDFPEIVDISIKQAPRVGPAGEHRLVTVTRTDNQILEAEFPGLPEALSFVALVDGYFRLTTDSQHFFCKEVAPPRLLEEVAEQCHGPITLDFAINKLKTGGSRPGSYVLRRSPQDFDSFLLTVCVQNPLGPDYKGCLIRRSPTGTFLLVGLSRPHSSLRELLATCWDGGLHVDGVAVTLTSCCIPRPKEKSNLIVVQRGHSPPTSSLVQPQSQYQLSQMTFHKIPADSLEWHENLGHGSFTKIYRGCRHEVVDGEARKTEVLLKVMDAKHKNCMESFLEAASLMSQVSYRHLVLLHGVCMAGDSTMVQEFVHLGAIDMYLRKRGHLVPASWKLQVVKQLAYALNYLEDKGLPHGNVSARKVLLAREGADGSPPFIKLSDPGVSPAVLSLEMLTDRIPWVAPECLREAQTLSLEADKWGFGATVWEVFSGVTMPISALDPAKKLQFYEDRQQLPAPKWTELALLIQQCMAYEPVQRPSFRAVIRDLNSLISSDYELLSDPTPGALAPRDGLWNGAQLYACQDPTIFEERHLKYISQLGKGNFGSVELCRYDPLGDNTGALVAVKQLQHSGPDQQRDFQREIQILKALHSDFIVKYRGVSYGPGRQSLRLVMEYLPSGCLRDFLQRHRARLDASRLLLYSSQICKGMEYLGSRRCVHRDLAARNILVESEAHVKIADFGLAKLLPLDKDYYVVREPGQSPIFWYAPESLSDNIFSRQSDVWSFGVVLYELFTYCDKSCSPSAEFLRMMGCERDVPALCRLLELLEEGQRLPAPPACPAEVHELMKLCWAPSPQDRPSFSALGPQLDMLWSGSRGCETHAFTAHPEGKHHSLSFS

Structures are written as SMILES.

`CC(=O)N[C@@H]1CCc2ccc(Oc3cnc4[nH]cc(C(=O)NC(C)C)c4n3)cc21` came in with a half-maximal inhibitory concentration (IC50) in assay [1] of 6300 nM. Consider `CC(=O)N[C@@H]1CCc2ccc(Oc3cnc4[nH]cc(C(=O)N[C@@H](C(=O)N5CC(C#N)C5)C5CC5)c4n3)cc21`, for which the figures for the IC50 in assay [1] and in assay [2] were 262 nM and 5 nM, respectively. Regarding `Cc1cccc(Oc2cnc3[nH]cc(C(=O)NC(C)C)c3n2)c1`, the half-inhibitory concentration (IC50) in assay [1] is 2150 nM.

`CC(C)NC(=O)c1c[nH]c2ncc(Oc3ccc(C#N)cc3)nc12`: the IC50 in assay [1] was 3470 nM.

Regarding `CC(=O)N[C@@H]1CCc2ccc(Oc3cnc4[nH]cc(C(=O)N[C@H](C)C(=O)N5CC(C#N)C5)c4n3)cc21`, the IC50 was found to be 11600 nM in assay [1] and 112 nM in assay [2]. Regarding `Cc1ccccc1Oc1cnc2[nH]cc(C(=O)NC(C)C)c2n1`, the IC50 in assay [1] is 5090 nM. Same read-out and setting: next, `CC(NC(=O)c1c[nH]c2ncc(Oc3ccccc3)nc12)C1CC1` (stereo not drawn): 220 nM; `CC(C)NC(=O)c1c[nH]c2ncc(Oc3cccc(C#N)c3)nc12`: 3190 nM; `CC(C)NC(=O)c1c[nH]c2ncc(Oc3ccc4c(c3)CCC4)nc12`: 3320 nM. The same measure, in the same setting: the figure for `COc1cc(OC)cc(Oc2cnc3[nH]cc(C(=O)NC(C)C)c3n2)c1` is 8220 nM; for `CCc1cccc(Oc2cnc3[nH]cc(C(=O)NC(C)C)c3n2)c1` it is 4160 nM. On to `CC(=O)N[C@@H]1CCc2ccc(Oc3cnc4[nH]cc(C(=O)N[C@@H](C)C5CC5)c4n3)cc21`, for which the IC50 in assay [1] came out at 863 nM. In assay [1], `CC(C)NC(=O)c1c[nH]c2ncc(Oc3ccccc3)nc12` showed a 50% inhibitory concentration (IC50) of 840 nM. On to `CC(=O)N[C@H]1CCc2ccc(Oc3cnc4[nH]cc(C(=O)NC(C)C)c4n3)cc21`, for which the half-maximal inhibitory concentration (IC50) in assay [1] was determined as 4390 nM.

The compound `CC(=O)N[C@@H]1CCc2ccc(Oc3cnc4[nH]cc(C(=O)N[C@H](C)C5CC5)c4n3)cc21` displayed a half-maximal inhibitory concentration (IC50) in assay [1] of 2080 nM. Same read-out and setting: the figure for `CC(=O)N[C@@H]1CCc2ccc(Oc3cnc4[nH]cc(C(=O)N[C@@H](C(=O)N5CC(C#N)C5)C(C)(C)C)c4n3)cc21` is 863 nM.
